Experimental data reported in patent US20210299286A1, “TETRAZINES FOR HIGH CLICK CONJUGATION YIELD IN VIVO AND HIGH CLICK RELEASE YIELD” (Tagworks Pharmaceuticals B.V., priority 2018, published 2021).
Like-named read-outs stand apart in the source and are kept apart here.

Assays:
[1] = Second-order reaction rate constant with TCO derivative by UV spectroscopy; format: physicochemical; settings: 25% MeCN/PBS at 20° C.
Procedure: The second-order reaction rate constants were calculated from the rate at which the absorption at 520 nm (specific for the TZ moiety) decreased (Table 4).

[2] = In vitro tetrazine stability (decrease of UV absorbance at 520 nm); format: physicochemical; settings: read-out: In vitro tetrazine stability (h), t1/2 (converted)
Procedure: The stability of tetrazines was evaluated by dissolving them in 10% MeCN/PBS at 37° C. and following the decrease of the tetrazine UV absorbance at 520 nm in time (Table 4).

AVP0458-TCO-MMAE = assay: MMAE release from diabody ADC with D8-MMAE internal standard (LC-SIM-MS); format: biochemical; settings: 10 equiv of tetrazine, PBS/plasma (1/1), 37° C., after 24 h, n=3
Procedure: In an alternative method MMAE release from diabody ADC (AVP0458-TCO-MMAE) was determined by using a deuterated internal standard D8-MMAE. ADC (1.1×10^−10 moles bound MMAE) and D8-MMAE (1.1×10^−10 moles) and 10 equiv of tetrazine were incubated in 100 uL PBS/plasma (1/1) at 37° C.

CC49-TCO-Dox [3] = assay: In vitro Dox release from CC49-TCO-Dox in PBS; format: biochemical
Procedure: (§1) Doxorubicin (Dox) release from the TCO-linked ADC CC49-TCO-Dox with various TZ activators in PBS and 50% mouse serum at 37° C. was evaluated in vitro as described in Rossin et al. Bioconjug. […] The results of these experiments are depicted in Tables 3 (PBS) and 4 (mouse serum). The release reactions were performed in triplicate unless otherwise stated in the result table.

CC49-TCO-Dox [4] = assay: In vitro Dox release from CC49-TCO-Dox in 50% mouse serum; format: biochemical
Procedure: as §1

[5] = system: LS174T human colon carcinoma cells; assay: Cell proliferation (MTT) assay of ADCs with range of tetrazines; format: cell-based; settings: 3-day incubation; for cell growth inhibition, combination of ADC and activator: CC49-TCO-Dox 0.1 μM or AVP0458-TCO-MMAE 1 nM plus activator 1 μM; for cell growth inhibition, activators alone: activator 1 μM alone
Procedure: Cell proliferation was assessed after a 3-day incubation by means of an MTT assay and was expressed as the % of that obtained without treatment.

[6] = Remark on stability of the free base; format: physicochemical; settings: intramolecular nucleophilic attack by the amine

For `Cc1nnc(-c2nccnc2C)nn1` [Compound 4.20], the “reactivity (k2)” value [1] was 28 M⁻¹ s⁻¹, the half-life ([2]; 10% MeCN/PBS) was 15 h and the “induced MMAE release (%) from AVP0458-TCO-MMAE” value (shortened to “induced MMAE release (%)”) (AVP0458-TCO-MMAE) was 59 ± 0.3%.

For `O=C(O)CN1CCN(CC(=O)O)CCN(CC(=O)NCCOCCOCCOCCOCCOCCOCCOCCOCCOCCOCCOCCNC(=O)CCCC(=O)Nc2ccc(-c3nnc(-c4ccccn4)nn3)nc2)CCN(CC(=O)O)CC1` [Compound 5.1, 2,2′,2″-(10-(2,40,44-Trioxo-44-((6-(6-(pyridine-2-yl)-1,2,4,5-tetrazin-3-yl)pyridine-3-yl)amino)-6,9,12,15,18,21,24,27,30,33,36-undecaoxa-3,39-diazatetratetracontyl)-1,4,7,10-tetraazacyclododecane-1,4,7-triyl)triacetic acid], the “In vitro Dox release (%) from CC49-Dox at 37° C. in PBS: 1 h” value (shortened to “In vitro Dox release (%) … in PBS: 1 h”) (CC49-TCO-Dox [3]) was 14.2%, the “In vitro Dox release (%) from CC49-Dox at 37° C. in PBS: 2 h” value (from here on “In vitro Dox release (%) … in PBS: 2 h”) (CC49-TCO-Dox [3]) was 20.4% and the “In vitro Dox release (%) from CC49-Dox at 37° C. in PBS: 3 h” value (“In vitro Dox release (%) … in PBS: 3 h” for short) (CC49-TCO-Dox [3]) was 24.3%. The “In vitro Dox release (%) from CC49-Dox at 37° C. in PBS: 24 h” value (“In vitro Dox release (%) … 24 h” for short) (CC49-TCO-Dox [3]) was 48.1%, the “In vitro Dox release (%) from CC49-Dox at 37° C. in PBS: 48 h” value (CC49-TCO-Dox [3]) was 54.9% and the “In vitro Dox release (%) from CC49-Dox at 37° C. in 50% mouse serum: 1 h” value (from here on “In vitro Dox release … in 50% mouse serum: 1 h”) (CC49-TCO-Dox [4]) was 13.7 ± 0.7%. The “In vitro Dox release (%) from CC49-Dox at 37° C. in 50% mouse serum: 2 h” value (“In vitro Dox release … in 50% mouse serum: 2 h” for short) (CC49-TCO-Dox [4]) was 15.2 ± 1.4% and the “In vitro Dox release (%) from CC49-Dox at 37° C. in 50% mouse serum: 3 h” value (“In vitro Dox release … in 50% mouse serum: 3 h” for short) (CC49-TCO-Dox [4]) was 14.8 ± 0.8%.

With `Cc1nnc(-c2ccccn2)nn1` [Compound 3.1, 3-(2-pyridyl)-6-methyl-1,2,4,5-tetrazine] the “In vitro Dox release (%) … in PBS: 1 h” value (CC49-TCO-Dox [3]) was 55.1%, the “In vitro Dox release (%) … in PBS: 2 h” value (CC49-TCO-Dox [3]) was 55.9% and the “In vitro Dox release (%) … in PBS: 3 h” value (CC49-TCO-Dox [3]) was 58.9%. For the same molecule, the “In vitro Dox release (%) … 24 h” value (CC49-TCO-Dox [3]) was 59.6%, the “In vitro Dox release … in 50% mouse serum: 1 h” value (CC49-TCO-Dox [4]) was 53.8 ± 1.7% and the “In vitro Dox release … in 50% mouse serum: 2 h” value (CC49-TCO-Dox [4]) was 57.1 ± 1.8%. For the same molecule, the “In vitro Dox release … in 50% mouse serum: 3 h” value (CC49-TCO-Dox [4]) was 59.6 ± 2.0%.

With “3-(pyridin-2-yl)-6-methyl-1,2,4,5-tetrazine functional dextran [Compound 3.2]” the “In vitro Dox release (%) … in PBS: 1 h” value (CC49-TCO-Dox [3]) was 44.3%, the “In vitro Dox release (%) … in PBS: 2 h” value (CC49-TCO-Dox [3]) was 44.7% and the “In vitro Dox release (%) … in PBS: 3 h” value (CC49-TCO-Dox [3]) was 47.5%. The “In vitro Dox release (%) … 24 h” value (CC49-TCO-Dox [3]) was 45.0%, the “In vitro Dox release … in 50% mouse serum: 1 h” value (CC49-TCO-Dox [4]) was 36.1 ± 0.1% and the “In vitro Dox release … in 50% mouse serum: 2 h” value (CC49-TCO-Dox [4]) was 39.8 ± 0.2%. The “In vitro Dox release … in 50% mouse serum: 3 h” value (CC49-TCO-Dox [4]) was 42.0 ± 0.4%.

With `Cc1nnc(-c2ccncn2)nn1` [Compound 4.19] the “reactivity (k2)” value [1] was 290 M⁻¹ s⁻¹, the half-life ([2]; buffer) was 1 h and the “induced MMAE release (%)” value (AVP0458-TCO-MMAE) was 60 ± 0.1%.

Molecule `COCCOCCOCCOCCOCCOCCOCCOCCOCCOCCOCC(=O)NCCCc1nnc(-c2ncccn2)nn1` [Compound 4.24] has a half-life ([2]; 10% MeCN/PBS) of 13 h.

For `NCCc1nnc(-c2nccc(CNC(=O)CCCC(=O)O)n2)nn1` [Compound 5.5], the “induced MMAE release (%)” value (AVP0458-TCO-MMAE) was 81 ± 0.4%.

In the case of `Cc1nnc(-c2nccc(CNC(=O)OC(C)(C)C)n2)nn1` [Compound 4.17], the “reactivity (k2)” value [1] is reported as 412 M⁻¹ s⁻¹, the half-life ([2]; 10% MeCN/PBS) is reported as 12 h and the “induced MMAE release (%)” value (AVP0458-TCO-MMAE) is reported as 70 ± 0.1%.

In the case of `Cc1nnc(-c2ccc(NC(=O)CCCC(=O)NCCOCCOCCOCCOCCOCCOCCOCCOCCOCCOCCOCCNC(=O)CN3CCN(CC(=O)O)CCN(CC(=O)O)CCN(CC(=O)O)CC3)cn2)nn1` [Compound 3.4, 2,2′,2″-(10-(44-((6-(6-methyl-1,2,4,5-tetrazin-3-yl)pyridin-3-yl)amino)-2,40,44-trioxo-6,9,12,15,18,21,24,27,30,33,36-undecaoxa-3,39-diazatetratetracontyl)-1,4,7,10-tetraazacyclododecane-1,4,7-triyl)triacetic acid], the “induced MMAE release (%)” value (AVP0458-TCO-MMAE) is reported as 47 ± 0.3%, the “cell growth inhibition, combination of ADC and activator” value (“cell growth inhibition, combination” for short) [5] is reported as “growth inhibition approached that achieved with the corresponding amount of free drug” and the “cell growth inhibition, activators alone” value [5] is reported as “minimal cell growth inhibition”.

With `NCCCc1nnc(-c2ncccn2)nn1` [Compound 4.6] the “stability in free base form” value [6] was “highly unstable”.

In the case of `Cc1nnc(-c2nccc(C(=O)O)n2)nn1` [Compound 4.23], the “reactivity (k2)” value [1] is reported as 246 M⁻¹ s⁻¹, the half-life ([2]; 10% MeCN/PBS) is reported as 6 h and the “induced MMAE release (%)” value (AVP0458-TCO-MMAE) is reported as 69 ± 0.5%.

With `Cc1nnc(-c2cnccn2)nn1` [Compound 4.18] the “reactivity (k2)” value [1] was 150 M⁻¹ s⁻¹, the half-life ([2]; 10% MeCN/PBS) was 16 h and the “induced MMAE release (%)” value (AVP0458-TCO-MMAE) was 55 ± 0.8%.

For “3,6-dimethyl-1,2,4,5-tetrazine functional dextran [Compound 2.2]”, the “In vitro Dox release (%) … in PBS: 1 h” value (CC49-TCO-Dox [3]) was 44.9%, the “In vitro Dox release (%) … in PBS: 2 h” value (CC49-TCO-Dox [3]) was 51.3% and the “In vitro Dox release (%) … in PBS: 3 h” value (CC49-TCO-Dox [3]) was 54.6%. The “In vitro Dox release (%) … 24 h” value (CC49-TCO-Dox [3]) was 62.3%, the “In vitro Dox release … in 50% mouse serum: 1 h” value (CC49-TCO-Dox [4]) was 34.0 ± 1.2% and the “In vitro Dox release … in 50% mouse serum: 2 h” value (CC49-TCO-Dox [4]) was 43.4 ± 1.5%. The “In vitro Dox release … in 50% mouse serum: 3 h” value (CC49-TCO-Dox [4]) was 48.6 ± 1.2%.

For `Cc1nnc(-c2nccc(CNC(=O)CN(CCN(CC(=O)O)CC(=O)O)CC(=O)O)n2)nn1` [Compound 4.26], the “reactivity (k2)” value [1] was 135 M⁻¹ s⁻¹, the half-life ([2]; 10% MeCN/PBS) was 13 h and the “induced MMAE release (%)” value (AVP0458-TCO-MMAE) was 59 ± 0.6%. The “cell growth inhibition, combination” value [5] was “growth inhibition approached that achieved with the corresponding amount of free drug” and the “cell growth inhibition, activators alone” value [5] was “minimal cell growth inhibition”.

For `O=C(O)CN1CCN(CC(=O)O)CCN(CC(=O)NCCOCCNC(=O)CCCC(=O)NCCCc2nnc(CCCNC(=O)CCCC(=O)NCCOCCNC(=O)CN3CCN(CC(=O)O)CCN(CC(=O)O)CCN(CC(=O)O)CC3)nn2)CCN(CC(=O)O)CC1` [Compound 5.3, Tz-bis-DOTA], the “In vitro Dox release (%) … in PBS: 1 h” value (CC49-TCO-Dox [3]) was 50.5%, the “In vitro Dox release (%) … in PBS: 2 h” value (CC49-TCO-Dox [3]) was 59.3% and the “In vitro Dox release (%) … in PBS: 3 h” value (CC49-TCO-Dox [3]) was 62.5%. For the same molecule, the “In vitro Dox release (%) … 24 h” value (CC49-TCO-Dox [3]) was 80.3%, the “In vitro Dox release (%) from CC49-Dox at 37° C. in PBS: 48 h” value (CC49-TCO-Dox [3]) was 91.2% and the “In vitro Dox release … in 50% mouse serum: 1 h” value (CC49-TCO-Dox [4]) was 43.6 ± 3.5%. The “In vitro Dox release … in 50% mouse serum: 2 h” value (CC49-TCO-Dox [4]) was 54.9 ± 6.0%, the “In vitro Dox release … in 50% mouse serum: 3 h” value (CC49-TCO-Dox [4]) was 64.4 ± 3.3% and the “In vitro Dox release (%) from CC49-Dox at 37° C. in 50% mouse serum: 6 h” value (CC49-TCO-Dox [4]; 6 h) was 67.5 ± 8.3%.

With `CN(CCc1nnc(-c2ncccn2)nn1)C(=O)c1ccc(F)cc1` [Compound 4.35, 4-fluoro-N-methyl-N-(2-(6-(pyrimidin-2-yl)-1,2,4,5-tetrazin-3-yl)ethyl)benzamide] the “induced MMAE release (%)” value (AVP0458-TCO-MMAE) was 67 ± 0.1%, the “cell growth inhibition, combination” value [5] was “growth inhibition approached that achieved with the corresponding amount of free drug” and the “cell growth inhibition, activators alone” value [5] was “minimal cell growth inhibition”.

For `NCCc1nnc(-c2nccc(CNC(=O)CCCC(=O)NC(CO)(CO)CO)n2)nn1` [Compound 5.8], the “induced MMAE release (%)” value (AVP0458-TCO-MMAE) was 80 ± 0.5%.

For `CN(CCc1nnc(-c2ncccn2)nn1)C(=O)N1CCN(C(=O)c2ccc(F)cc2)CC1` [Compound 4.33, 4-(4-fluorobenzoyl)-N-methyl-N-(2-(6-(pyrimidin-2-yl)-1,2,4,5-tetrazin-3-yl)ethyl)piperazine-1-carboxamide], the “induced MMAE release (%)” value (AVP0458-TCO-MMAE) was 53 ± 0.6%, the “cell growth inhibition, combination” value [5] was “growth inhibition approached that achieved with the corresponding amount of free drug” and the “cell growth inhibition, activators alone” value [5] was “minimal cell growth inhibition”.

For `Cc1nnc(-c2nccc(CNC(=O)CCCC(=O)O)n2)nn1` [Compound 4.27], the “induced MMAE release (%)” value (AVP0458-TCO-MMAE) was 66 ± 0.5%.
